Data from US8686049B2, “Agent for increasing testosterone level” (Tohoku University, priority 2006, dated 2014).

What was measured:
[1] = person per day; cited from earlier work
[2] = Testis vitamin K concentration, Example 2; format: in vivo, rat; settings: rats, 75 mg/kg in diet, 35 days (FIG. 7), P<0.05
Method: (§1) As in Example 1, the experimental animals and breeding conditions were ordinary rats (Wistar/Std, eight-week-old males) bred in a breeding room set to a temperature of 23° C., humidity of 50±5%, and a 12-hour light/dark cycle in which lights were turned on at 8 AM and turned off at 8 PM.
(§2) The breeding period was 35 days. Blood was drawn from tail veins every week at 18 o'clock. Measurements of weight, diet intake, testis vitamin K content, testis testosterone concentration, and plasma testosterone concentration were taken. The analysis method was similar to that in Example 1.
Data on testis vitamin K concentration and testosterone concentration was analyzed using the Tukey method. Analysis of changes over time in the blood testosterone concentrations was performed by two-way layout analysis of variance (repeated). In all cases, significant differences was P<0.05.

[3] = Weight and diet intake of rats on experimental diets, Example 2; format: in vivo, rat; settings: 75 mg/kg in diet, 35 days; for differences in weight: vs control dietary group (FIG. 5); for differences in diet intake: vs control dietary group (FIG. 6)
Method: as §1, §2

[4] = Testis vitamin K analog concentration by HPLC-reduction fluorescence, Example 1 (35-day diet); format: in vivo, rat; settings: rats, diet with MK-4 75 mg/kg for 35 days, vs low K and control dietary groups (FIG. 1)
Method: Experimental animals: ordinary rats (Wistar/Std, eight-week-old males)
(§3) In the breeding method, preparatory breeding was performed in which the rats have free access to feed and water for three to five days. A commercially-available solid feed (product name: MR Labostock by Nosan Corp.) was used. Each experimental diet group includes four rats that were colony-bred in a wire mesh cage. After the preparatory breeding, the rats were fed respective experimental diets and bred for 35 days with free access to feed and water. Blood samples were taken, and testes were removed.
One gram of tissue was precisely measured and placed in a stoppered brown centrifuge tube. Two milliliters of 66% IPA solution was added. The sample was then homogenized in a Polytron homogenizer (Biotron) on ice. […]
The vitamin K homologues in the prepared HPLC sample are non-fluorescent, oxidized types. […] Quantities of the vitamin K groups were determined by an HPLC-reduction fluorescence method that measures fluorescence intensity of the sample. The vitamin K groups were determined as a relative value of MK-3 that was the internal standard.
In the method, the HPLC-reduction fluorescence method is used in which the non-fluorescent, oxidized type vitamin K groups become fluorescent, reduced types through use of the platinum catalyst column. The fluorescence intensity of the vitamin K groups was measured. […]

[5] = tested on: P450scc; test: P450scc protein level in testis by Western blot, Example 1; format: in vivo; settings: rat testis, diet with MK-4 75 mg/kg for 35 days, vs control dietary group (FIG. 3)
Method: as §3
Testes of each of the above-described group that had been stored at −80° C. after dissection were used. Anti-P450scc antibodies were purchased from Chemicon International, Inc.
While being iced in 1 ml of 1× Phosphate buffered saline (PBS, including 10 μl of 100 mM phenyl methane sulfonyl fluoride [PMSF]), 0.2 g of testes were homogenized in the Polytron homogenizer (Biotron). […] A portion of the tissue homogenate was used to determine the quantity of protein. […]
One milliliter of ECLTM Western blotting detection reagent (Amersham Corp.) was poured over the entire membrane. […] Luminescent signals were picked up by an Las-1000 Imaging System (Fujifilm Corp.) and quantity was determined using ImageGauge (trademark) image processing software.
Protein concentration in the tissue homogenates was measured by the Bradford method. […]

Row | MK-4 concentration in the testes [4] | Compound | tolerable upper intake level [1] | testis MK-4 concentration [2] | differences in weight [3] | differences in diet intake [3] | P450scc protein level [5]
1 | – | Vitamin K | 30 mg | – | – | – | –
2 | – | CC1=C(C/C=C(\C)CCC[C@H](C)CCC[C@H](C)CCCC(C)C)C(=O)c2ccccc2C1=O [vitamin K1, phylloquinone] | – | significantly increased | could not be observed | could not be observed | –
3 | significantly high | CC(C)=CCC/C(C)=C/CC/C(C)=C/CC/C(C)=C/CC1=C(C)C(=O)c2ccccc2C1=O [MK-4, menaquinone-4] | – | significantly increased | could not be observed | could not be observed | significantly higher
